# Results reported in patent US20070010484A1, “Method for treating or inhibiting the effects of injuries or diseases that result in neuronal degeneration and method for promoting neurogenesis” (YEDA RESEARCH AND DEVELOPMENT CO. LTD., priority 2003, published 2007).
# How the values were obtained:
# human T cells [1] = experiment: T-cell adhesion to fibronectin in presence of SDF-1α; type: cell-based; conditions: 2 h pretreatment prior to SDF-1α, FN-coated plates, relative to untreated T cells
# Protocol: Human T cells. T cells from the peripheral blood of healthy donors were isolated by negative selection using a RosetteSep™ antibody cocktail containing mabs against CD16, CD19, CD36, and CD56 (StemCell Technologies, Vancouver, BC). After incubation with the cocktail for 20 min at room temperature, blood samples were diluted in PBS with 2% fetal bovine serum, loaded on a Ficoll column (ICN Biomedical, Aurora, Ohio), and centrifuged at 1200× g for 20 min at room temperature. The cells were removed from the Ficoll column, washed, and cultured in RPMI containing antibiotics and 10% heat-inactivated FCS. T-cell adhesion assays. Adhesion of T cells to FN was assayed as described (Ariel et al., 1998). Briefly, flat-bottomed microtiter well plates were precoated with CSPG or FN (10 μg/ml) and the remaining binding sites were blocked with 1% BSA. […]-labeled T cells were resuspended in RPMI medium supplemented with 1% HEPES buffer and 0.1% BSA (adhesion medium). After preincubation 2 h with CSPG-DS at the indicated concentrations, the T cells were incubated (30 min, 37° C., humidified atmosphere of 7% CO2 in air) with SDF-1α and then added to the wells. […] Adherent cells were lysed with lysis buffer (1 M NaOH, 0.1% Triton X-100 in H2O), removed, and counted with a γ-counter (Packard, Downers Grove, Ill.).
# TNF-α = TNF-α secretion by anti-CD3-activated T cells, ELISA; type: cell-based, human; conditions: 2 h pretreatment, then anti-CD3 activation 24 h
# human T cells [2] = type: cell-based
# Protocol: T-cell apoptosis: T cells (2×10^6 cells/ml) were incubated for 2 h with the indicated concentrations of CSPG-DS in RPMI medium containing 10% FCS, and then plated on 24-well plates (non-tissue-culture grade) precoated with anti-CD3 mAb (1 μg/ml; overnight) and cultured for 72 h. The percentage of cells undergoing apoptosis was determined using the annexin V-detection assay (Bender MedSystem, San Bruno, Calif.). The cells were incubated for 10 min in the dark at room temperature in 200 μl of buffer containing FITC-conjugated human annexin V ([…]; Bender MedSystem, Propidium iodide (10 μl) was added to each sample, and the percentage of cells undergoing apoptosis was analyzed by FACS® at 525 nm using CELLQuest Software. Cells that stained positively for annexin V and negatively for propidium iodide corresponded to the apoptotic cells.
# PC12 cells = experiment: PC12 cell viability after glutamate, XTT assay; type: cell-based, rat; conditions: disaccharides 1 to 50 μg/ml for 45 min, glutamate 10^−3 M 15 min, XTT after 24 h
# Protocol: PC12 cell line. Rat pheochromocytoma (PC12) cells were cultured in DMEM containing horse serum and FCS, both at 8% (culture medium) or at 1% (differentiation medium).
# Cell viability assay. PC12 cells were seeded on collagen-coated 96-well plates at a density of 10^4 cells per well (in differentiation medium containing 100 ng/ml NGF). The cells were incubated with CSPG-DS or other disaccharides at the indicated concentrations for 45 min, then washed with PBS and exposed to glutamate (10^−3 M) for 15 min. The glutamate solution was washed away and replaced with DMEM for a further 24 h of incubation. The number of viable cells was then determined with the XTT viability kit according to the manufacturer's instructions.
# IGF-1 = IGF-1 expression in primary microglial cultures, immunocytochemistry; type: cell-based, C57Bl/6J mice
# Protocol: Primary microglial culture. Brains from neonatal (P0-P1) C57Bl/6J mice were stripped of their meninges and minced with scissors under a dissecting microscope (Zeiss, Stemi DV4, Germany) in Leibovitz-15 medium (Biological Industries, Beit Ha-Emek, Israel). After trypsinization (0.5% trypsin, 10 min, 37° C./5% CO2), the tissue was triturated. The cell suspension was washed in culture medium for glial cells (DMEM supplemented with 10% fetal calf serum (FCS; Sigma-Aldrich, Rehovot, Israel), 1-glutamine (1 mM), sodium pyruvate (1 mM), penicillin (100 U/ml), and streptomycin ([…])) and cultured at 37° C./5% CO2 in 75-cm2 Falcon tissue-culture flasks (BD Biosciences) coated with poly-D-lysine (PDL) ([…]; Sigma-Aldrich, Rehovot) in borate buffer (2.37 g borax and 1.55 g boric acid dissolved in 500 ml sterile water, pH 8.4) for 1 h, then rinsed thoroughly with sterile, glass-distilled water. Half of the medium was changed after 6 h in culture and every 2nd day thereafter, starting on day 2, for a total culture time of 10-14 days. […]
# MHC II = MHC II expression in microglia; type: cell-based
structure (smiles),measurement,setting,value
"CC(=O)N[C@H]1C(O)O[C@H](COS(=O)(=O)O)[C@H](O)[C@@H]1O[C@@H]1OC(C(=O)O)=C[C@H](O)[C@H]1O (stereo partly drawn) [CSPG-DS, 2-acetoamido-2-deoxy-3-O-(β-D-gluco-4-enepyranosyluronic acid)-6-O-sulfo-D-galactose]",T-cell adhesion,human T cells [1],significantly reduced
same,secretion of TNF-α,TNF-α,significant reduction
same,viability of the T cells (apoptosis),human T cells [2],did not significantly affect
same,survival of PC12 cells exposed to glutamate,PC12 cells,protected PC12 cells from glutamate toxicity
same,LPS-induced suppression of IGF-I expression,"IGF-1; microglia pre-incubated with CSPG-DS (25 or 50 μg/ml) 1 h, then LPS 24 h",attenuated
same,IGF-1 expression by microglia,IGF-1; mouse primary microglia,high levels
same,MHC II expression in microglia,MHC II,activate microglia to express MHC II
